Experimental data reported in patent publication US10334845B2, “Olfactory ligands” (University College Cardiff Consultants Limited, priority 2015, dated 2019).
Values joined by “and” are separate entries in the source; they are usually repeats but may differ in a detail not shown here. Identical values can stand only once.

Tests used:
[1] = tested on: grain aphids, Sitobion avenae; test: Behavioural assay, four-arm olfactometer; format: in vivo; details: for Time spent in control arms (mean of 3) / Time spent in treatment arm: mean (SE), 16 min, 10 replicates; for Insect repellent / attractant activity (in words): summary statement
Experimental: The responses of individual grain aphids, Sitobion avenae, to test compounds were observed using a Perspex four-arm olfactometer (Pettersson, J.; Ent. Scand. 1, 63-73 (1970); Webster, B., et al. Animal Behav. 79, 451-457 (2010)), which was maintained at 23° C. and lit from above. A filter paper disc was laid in the bottom section of the olfactometer to provide traction for the aphid and the middle and top sections were fitted into place very tightly to give a good seal. The four arms, consisting of the barrels of disposable 10 mL syringes (Plastipak), were fitted tightly into the holes of the middle section, and filtered air was drawn through them and into the body of the olfactometer through a tube inserted into a hole in the centre of the top section and attached to a pump. The measured total flow rate was 200 mL/min and it was assumed that the flow rate through each arm was 50 mL/min. The three control arms each contained a filter paper strip to which had been applied 10 µL hexane which had been allowed to evaporate for 30 s. The treatment arm contained a filter paper strip to which the test compound in 10 μL of hexane (20-200 ng μL^−1) had been applied and left for 30 s for the hexane to evaporate. A single aphid was introduced through the central hole and the suction tube quickly reinserted. The time spent in each arm and in the central zone were recorded, using specialist software (OLFA, Udine, Italy), for the next 16 minutes. The olfactometer was rotated through 90° every 2 min to eliminate any directional bias. Each assay comprised 10 replicates and the mean time spent in treated and control arms were compared using a paired t-test (Genstat).
Data were recorded as mean (±SE) time spent in control (solvent only) or treatment arms and were analysed using Students T-test.

[2] = tested on: grain aphid (Sitobion avenae); details: background statement; cited from earlier work

Structure (SMILES) | Time spent in control arms (mean of 3) ([1]; dose 1.0 μg) | Time spent in treatment arm ([1]; dose 1.0 μg) | Time spent in control arms (mean of 3) ([1]; dose 2.0 μg) | Time spent in treatment arm ([1]; dose 2.0 μg) | other results
C=C1C=C[C@H](C(C)C)CCC(C)=C(F)CC1 [Comparator Compound Ih, (S)-1-fluorogermacrene D] | 2.54 (0.27) min | 2.62 (0.50) min | 2.60 (0.26) min | 2.46 (0.39) min | 
C=C1C=C[C@H](C(C)C)CCC(CC)=CCC1 [Comparator Compound Ic, (S)-14-methylgermacrene D] | 2.61 (0.28) min | 3.27 (0.68) min | 2.01 (0.23) min | 1.65 (0.39) min | Time spent in control arms (mean of 3) ([1]; dose 0.2 μg): 2.21 (0.27) min; Time spent in treatment arm ([1]; dose 0.2 μg): 2.41 (0.73) min
C=C1/C=C/[C@H](C(C)C)CC/C(C)=C/CC1 [Germacrene D] |  |  |  |  | Insect repellent activity (in words) [2]: repel insects
C=C1C=C[C@H](C(C)CC)CCC(C)=CCC1 (stereo partly drawn) [Comparator Compound Ib, (S)-12-methylgermacrene D] |  |  |  |  | Time spent in control arms (mean of 3) ([1]; dose 0.9 μg): 2.21 (0.42) min; Time spent in treatment arm ([1]; dose 0.9 μg): 1.20 (0.24) min; Time spent in control arms (mean of 3) ([1]; dose 1.2 μg): 2.66 (0.17) min; Time spent in treatment arm ([1]; dose 1.2 μg): 2.13 (0.25) min
CC=C1C=C[C@H](C(C)C)CCC(CC)=CCC1 [Compound Ig, (S)-14,15-dimethylgermacrene D] | 2.27 (0.11) min and 2.39 (0.20) min | 2.77 (0.31) min and 2.97 (0.40) min |  |  | Time spent in control arms (mean of 3) ([1]; dose 0.8 μg): 2.60 (0.22) min; Time spent in treatment arm ([1]; dose 0.8 μg): 3.38 (0.38) min; Time spent in control arms (mean of 3) ([1]; dose 1.2 μg): 1.96 (0.21) min; Time spent in treatment arm ([1]; dose 1.2 μg): 2.92 (0.23) min; Insect repellent / attractant activity (in words) [1]: strong insect attractant properties
C=C1/C=C/[C@@H](C(C)C)CC/C(C)=C/CC1 [III, (R)-germacrene D] | 2.57 (0.19) min | 3.15 (0.53) min | 1.86 (0.29) min | 2.65 (0.52) min | 
CC=C1C=C[C@H](C(C)C)CCC(C)=CCC1 [Compound If, (S)-15-methylgermacrene D] | 2.52 (0.23) min | 1.92 (0.31) min |  |  | Time spent in control arms (mean of 3) ([1]; dose 0.8 μg): 2.61 (0.26) min; Time spent in treatment arm ([1]; dose 0.8 μg): 1.38 (0.38) min; Insect repellent / attractant activity (in words) [1]: much greater insect repellent activity
C=C1/C=C/[C@H](C(C)C)CC/C(C)=C/CC1 [Comparator Compound Ia, (S)-germacrene D] |  | 1.63 (0.35) min | 2.29 (0.41) min | 0.50 (0.14) min | Time spent in control arms (mean of 3) ([1]; dose 0.2 μg): 2.31 (0.26) min; Time spent in treatment arm ([1]; dose 0.2 μg): 1.14 (0.25) min
CC1CCCC(C)CCC(C(C)C)CC1 (stereo not shown) [IV, germacrane] | 2.45 (0.30) min | 2.04 (0.58) min | 2.39 (0.24) min | 2.38 (0.50) min | 
